Results as given in patent US8598132B2, “Glycosylated indolocarbazoles, method for obtaining same and uses thereof” (Universidad de Oviedo, priority 2008, dated 2013).

How the values were obtained:
Assay type in all cases: biochemical
Conditions in all cases: read-out: remaining kinase activity (in %) / percentage of inhibition; for inhibition at 0.01 µM: compound at 10 nM; for inhibition at 0.1 µM: compound at 100 nM
p38a = target: T1, p38a (Homo sapiens, UniProt Q16539); experiment: LabChip (Caliper) kinase assay, p38a
T1 construct: purchased Carna Biosciences
Experimental: (§1) The analysis of kinase activity described here was performed using LabChip (Caliper Life Sciences), specifically the Caliper LC3000 and the EZ Reader II instruments.
(§2) The kinase assay used measures the conversion of a fluorescent peptide (substrate) to a phosphorylated product. The reaction mixture, in a microplate well, is introduced by a capillary in a chip where the non-phosphorylated substrate and the phosphorylated product are separated by […]. The intensity of the fluorescent signal over time is related to the reaction progress. The phosphorylated product migrates quicker than the non-phosphorylated substrate and the signals of the two forms of the peptide appear as differentiated peaks. The Caliper determines the peak height and calculates the ratio of product to the peak sum (P/(P+S)). This value is used to compare wells with compounds and wells with controls and thus determine the % of inhibition for the given product.
(§3) The followings kinases were used for the enzymatic inhibition studies, between brackets the value of the Michaelis-Menten constant, Km, of the ATP (Adenosine triphosphate) for each kinase, in μM: obtained from Carna Biosciences: MAPKAPK2 (4.6), AurA (3.6), AurB (5), PKCζ (3.8), RSK1 (23.3), PRAK (5), Erk1 (33.4), PKD2 (32.1), CK1d (16.3), CHK1 (33), ABL (61.7), FYN (36), LYNa (17), CHK2 (57.8), MET (79.5), LCK (28.5), SRC (38), GSK3β (7.3), Erk2 (62.1), PKACα (1.7), AKT2 (186.1), INSR (871.8), p38a (396.5), AKT1(48), MSK1 (21.2), PKCβ2 (84.8), ROCK2 (3.3), PIM2 (4.9), AMPK (38.6), KDR (164.8), IRAK4 (196.5), SGK1 (121.8), SYK (33.5); obtained from Invitrogen: CDK2 (57.6), BTK (123), HGK (80); obtained from Upstate: MST2 (36.6), PKGα (16), PAK2 (1.9), IGF1R (320), FGFR1 (171), MARK1 (33), CAMK2δ (22.4), c-TAK1 (66), DYRK1a (18.1), CaMK4 (3.9), FLT3 (350), c-Raf (6.2), P70S6K (95).
(§4) The compounds were dissolved in 100% DMSO and were diluted at 25 times the final concentration desired for the assay. In the case of the determination of Cl50, serial dilutions were made to reach eight concentrations and give rise to the inhibition curve. 1 μL of each concentration is transferred, in duplicate to a 384-well microplate. 12 μL of enzymatic buffer is added to each well containing purified kinase (several suppliers as indicated above), 100 mM HEPES, pH 7.5, 1 mM DTT (Calbiochem), 0.002% Brij-35 (Sigma) and also in presence of 10 mM MgCl2 as cofactor, except for INSR and IRAK4 wherein 10 mM MnCl2 is used instead of MgCl2. For the kinases CAMK26 and CAMK4, 1 mM CaCl2 and 6.7 μg/mL of calmodulin are also added. For KDR kinase, 0.05% of the CHAPSO detergent is added. For the c-Raf kinase, 10 mM MnCl2 is added. For PKCβ2 0.02 μg/mL of PS/PMA is added. For PKGα se 10 μM of cGMP (cyclic guanosine monophosphate) is added. The compound and the enzyme are left for 15 minutes preincubation and, then, the following are added to each well: 12 μL of peptide buffer/ATP containing 100 mM HEPES, pH 7.5, 1.5 μM peptide marker with fluorescein (specific for the corresponding kinase), ATP (at concentration KM), and 0.002% Brij-35 to start the reaction. Generally, the reactions are incubated for 1-1.5 h at ambient temperature to obtain an adequate conversion (15-40%) of the peptide to the phosphorylated product. The reactions were ended by the addition of 45 μL of buffer containing 0 mM EDTA. The microplates were read by the LabChip 3000 using a 12-channel LabChip. The P/(P+S) values were obtained as described above and the CI50 curves were generated using XIfit. […]

MST2 = target: T2, MST2 (Homo sapiens, UniProt Q13188); experiment: LabChip (Caliper) kinase assay, MST2
T2 construct: purchased Upstate
T2 sequence (Q13188 1-491): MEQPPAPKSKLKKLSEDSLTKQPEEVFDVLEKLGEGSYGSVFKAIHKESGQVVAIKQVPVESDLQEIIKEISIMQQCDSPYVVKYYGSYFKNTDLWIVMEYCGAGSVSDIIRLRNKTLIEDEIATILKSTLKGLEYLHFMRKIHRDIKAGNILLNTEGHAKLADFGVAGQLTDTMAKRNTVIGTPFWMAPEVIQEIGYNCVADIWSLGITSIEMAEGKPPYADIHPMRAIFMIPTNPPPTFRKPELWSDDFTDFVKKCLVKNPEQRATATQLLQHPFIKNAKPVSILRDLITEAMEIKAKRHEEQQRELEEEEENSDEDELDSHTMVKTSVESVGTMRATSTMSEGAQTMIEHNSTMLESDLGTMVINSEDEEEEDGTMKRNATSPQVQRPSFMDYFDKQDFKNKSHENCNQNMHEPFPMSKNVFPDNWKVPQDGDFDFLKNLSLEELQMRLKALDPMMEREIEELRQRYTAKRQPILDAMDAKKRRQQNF
Experimental: as §1, §2, §3, §4

RSK1 = target: T3, RSK1 (Homo sapiens, UniProt Q15418); experiment: LabChip (Caliper) kinase assay, RSK1
T3 construct: purchased Carna Biosciences
Experimental: as §1, §2, §3, §4

AmpKa1 = target: T4, AmpKa1 (Homo sapiens, UniProt Q13131); experiment: LabChip (Caliper) kinase assay, AmpKa1
T4 construct: purchased Carna Biosciences
Experimental: as §1, §2, §3, §4

T1 sequence (Q16539 whole entry): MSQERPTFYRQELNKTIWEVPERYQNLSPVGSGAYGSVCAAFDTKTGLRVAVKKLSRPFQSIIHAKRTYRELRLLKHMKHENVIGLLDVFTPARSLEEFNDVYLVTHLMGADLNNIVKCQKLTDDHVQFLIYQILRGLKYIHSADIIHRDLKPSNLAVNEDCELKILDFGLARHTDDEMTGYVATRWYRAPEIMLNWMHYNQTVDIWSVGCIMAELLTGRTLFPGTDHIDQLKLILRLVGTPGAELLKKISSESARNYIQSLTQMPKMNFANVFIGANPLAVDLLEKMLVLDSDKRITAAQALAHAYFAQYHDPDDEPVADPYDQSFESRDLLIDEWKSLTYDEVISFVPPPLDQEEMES
T4 sequence (Q13131 whole entry): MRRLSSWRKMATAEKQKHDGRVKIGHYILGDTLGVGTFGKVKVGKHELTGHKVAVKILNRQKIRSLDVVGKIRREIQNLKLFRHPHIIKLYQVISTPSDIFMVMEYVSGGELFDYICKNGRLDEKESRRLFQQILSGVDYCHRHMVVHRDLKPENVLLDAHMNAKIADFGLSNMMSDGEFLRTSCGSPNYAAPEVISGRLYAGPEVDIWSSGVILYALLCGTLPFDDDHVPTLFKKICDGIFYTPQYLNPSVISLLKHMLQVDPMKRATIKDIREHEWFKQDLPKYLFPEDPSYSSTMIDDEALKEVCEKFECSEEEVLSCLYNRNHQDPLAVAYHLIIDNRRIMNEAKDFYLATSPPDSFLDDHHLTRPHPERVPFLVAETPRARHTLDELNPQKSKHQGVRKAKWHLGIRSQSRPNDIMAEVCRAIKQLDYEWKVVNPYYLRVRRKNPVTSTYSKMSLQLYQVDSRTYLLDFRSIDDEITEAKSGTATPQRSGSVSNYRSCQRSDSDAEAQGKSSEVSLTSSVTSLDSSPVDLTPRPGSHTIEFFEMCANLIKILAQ
T4 sequence (Q9Y478 whole entry partner): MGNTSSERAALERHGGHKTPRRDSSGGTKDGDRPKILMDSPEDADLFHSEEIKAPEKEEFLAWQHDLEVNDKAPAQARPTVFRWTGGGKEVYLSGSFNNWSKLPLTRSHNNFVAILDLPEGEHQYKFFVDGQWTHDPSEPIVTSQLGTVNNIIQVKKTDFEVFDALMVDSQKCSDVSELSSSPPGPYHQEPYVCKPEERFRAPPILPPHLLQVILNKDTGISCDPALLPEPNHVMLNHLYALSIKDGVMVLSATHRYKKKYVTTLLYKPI
T4 sequence (P54619 whole entry partner): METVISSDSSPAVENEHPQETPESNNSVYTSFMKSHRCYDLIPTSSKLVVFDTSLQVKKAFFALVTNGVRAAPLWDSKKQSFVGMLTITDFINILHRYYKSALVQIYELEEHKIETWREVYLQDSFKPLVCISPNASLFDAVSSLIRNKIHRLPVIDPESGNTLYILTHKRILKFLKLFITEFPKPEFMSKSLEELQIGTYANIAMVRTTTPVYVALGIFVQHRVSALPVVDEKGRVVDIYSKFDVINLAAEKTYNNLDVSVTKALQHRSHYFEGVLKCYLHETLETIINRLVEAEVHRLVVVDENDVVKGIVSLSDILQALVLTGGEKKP
T3 sequence (Q15418 whole entry): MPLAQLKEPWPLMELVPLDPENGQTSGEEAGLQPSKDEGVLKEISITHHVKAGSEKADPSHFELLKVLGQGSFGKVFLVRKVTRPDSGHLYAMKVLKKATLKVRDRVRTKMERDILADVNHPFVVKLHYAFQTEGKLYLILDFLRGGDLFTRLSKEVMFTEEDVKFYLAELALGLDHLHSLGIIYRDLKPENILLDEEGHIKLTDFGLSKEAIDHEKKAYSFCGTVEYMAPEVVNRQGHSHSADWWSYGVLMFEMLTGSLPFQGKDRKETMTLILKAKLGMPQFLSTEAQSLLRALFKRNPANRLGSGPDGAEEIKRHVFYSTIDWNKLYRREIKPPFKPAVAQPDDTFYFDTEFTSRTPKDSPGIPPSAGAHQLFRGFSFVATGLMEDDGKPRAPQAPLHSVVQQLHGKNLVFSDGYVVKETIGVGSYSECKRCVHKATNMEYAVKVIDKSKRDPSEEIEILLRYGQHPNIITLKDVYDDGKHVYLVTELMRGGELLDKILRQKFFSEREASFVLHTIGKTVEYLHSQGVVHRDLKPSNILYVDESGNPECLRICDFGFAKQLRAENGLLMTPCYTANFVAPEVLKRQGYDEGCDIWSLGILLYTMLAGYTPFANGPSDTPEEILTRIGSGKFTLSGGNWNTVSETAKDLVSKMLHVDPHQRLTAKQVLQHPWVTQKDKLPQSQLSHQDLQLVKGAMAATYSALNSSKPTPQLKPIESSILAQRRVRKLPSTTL

SMILES	inhibition at 0.01 µM (p38a)	inhibition at 0.1 µM (p38a)	inhibition at 0.01 µM (MST2)	inhibition at 0.1 µM (MST2)	inhibition at 0.01 µM (RSK1)	inhibition at 0.1 µM (RSK1)	inhibition at 0.01 µM (AmpKa1)	inhibition at 0.1 µM (AmpKa1)
C[C@H]1O[C@@H](n2c3ccccc3c3c4c(c5c6ccccc6[nH]c5c32)CNC4=O)C[C@@H](O)[C@@H]1O [formula (XV), N^13-1′-β-D-olivosyl-k252c]	-1%	-3%	12%	78%	-1%	31%	-3%	9%
C[C@@H]1O[C@@H](n2c3ccccc3c3c4c(c5c6ccccc6[nH]c5c32)C(=O)NC4=O)C[C@H](O)[C@H]1O [formula (IV), N^13-1′-β-L-olivosylarcyriaflavin]	-2%	-2%	2%	15%	14%	77%	3%	21%
C[C@H]1O[C@@H](n2c3ccccc3c3c4c(c5c6ccccc6[nH]c5c32)C(=O)NC4=O)C[C@@H](O)[C@@H]1O [formula (VI), N^13-1′-β-D-olivosylarcyriaflavin]	-1%	-1%	13%	65%	31%	74%	5%	33%
C[C@@H]1O[C@@H](n2c3ccccc3c3c4c(c5c6ccccc6[nH]c5c32)CNC4=O)C[C@@H](O)[C@H]1O [formula (XIV), N^13-1′-β-L-digitoxosyl-k252c]	-1%	-2%	7%	34%	-1%	22%	2%	1%
C[C@@H]1O[C@@H](n2c3ccccc3c3c4c(c5c6ccccc6[nH]c5c32)CNC4=O)C[C@H](O)[C@H]1O [formula (XIII), N^13-1′-β-L-olivosyl-k252c]	-2%	-3%	4%	33%	7%	56%	-3%	10%
C[C@@H]1O[C@@H](n2c3ccccc3c3c4c(c5c6ccccc6[nH]c5c32)C(=O)NC4=O)C[C@@H](O)[C@H]1O [formula (V), N^13-1′-β-L-digitoxosylarcyriaflavin]	1%	-2%	16%	54%	38%	77%	8%	28%
C[C@@H]1O[C@@H](n2c3ccccc3c3c4c(c5c6ccccc6[nH]c5c32)C(=O)NC4=O)[C@H](O)[C@H](O)[C@H]1O [formula (III), N^13-1′-β-L-rhamnosylarcyriaflavin]	0%	-1%	2%	10%	2%	20%	1%	11%
C[C@@H]1O[C@@H](n2c3ccccc3c3c4c(c5c6ccccc6[nH]c5c32)CNC4=O)[C@H](O)[C@H](O)[C@H]1O [formula (XII), N^13-1′-β-L-rhamnosyl-k252c]	-1%	0%	4%	19%	-4%	7%	1%	7%
